Literature values as cited in patent US20110048980A1, “Fatty Acid Oxidation Inhibitors Treating Hyperglycemia and Related Disorders” (Symcopeia Company, priority 2007, published 2011).
Blank lines part the entries; values can stand above or below the molecule they belong to.

What was measured:
[1] = in vivo
[2] = pioglitazone added to other glucose lowering drugs, equivalent glucose-lowering

Structure (SMILES): COc1ccccc1OCC(O)CN1CCN(CC(=O)Nc2c(C)cccc2C)CC1 (stereo not shown) [Ranolazine, ranolazine]
QT interval effect [1]: causes QT interval prolongation

CHD events, relative risk (IGT patients, not statistically reduced, trend): 1.37
Structure (SMILES): CN(CCOc1ccc(CC2SC(=O)NC2=O)cc1)c1ccccn1 (stereo not shown) [rosiglitazone]
increase in incidence of CHF (pre-diabetic population): 7 fold

increase in risk of congestive heart failure (CHF) [2]: 2-3 fold
Structure (SMILES): CCc1ccc(CCOc2ccc(CC3SC(=O)NC3=O)cc2)nc1 (stereo not shown) [pioglitazone]
